Consider 21 compounds from US11180496B2 (Daewoong Pharmaceutical Co., Ltd., priority 2017, dated 2021).

One assay concerns the target T1, BTK (Homo sapiens, UniProt Q06187).
T1 construct: purchased Promega
Kind of assay: BTK inhibitory activity, ADP-Glo + BTK Kinase enzyme system kit (Promega). Type of assay: biochemical. Conditions: BTK enzyme 1 ng/uL, ATP 10 uM, 15 min preincubation, luminescence, duplicate. On the procedure: (§1) The inhibitory activity against BTK and ITK of the compounds prepared in Examples above were measured as follows.
(§2) The inhibitory activity against BTK was evaluated using ‘ADP-Glo™+BTK Kinase enzyme system’ kit from Promega. […] 5 uL of substrate and 5 uL of ATP prepared at a final concentration of 10 uM were added to all wells of the plate after completion of the reaction, and allowed to react at 30° C. for 1 hour. All wells of the plate after completion of the reaction were treated with 25 uL of ADP-Glo™ reagent and reacted at 30° C. for 40 minutes. Then, 50 uL of the kinase detection buffer was applied to all wells of the plate, and then the light was blocked and reacted at 30° C. for 30 minutes. For the plate for which all reactions were completed, the luminescence was measured and the results were calculated. The evaluation was performed in duplicate. The respective values of negative and positive controls, depending on whether the enzymes were added without treatment of the compound, were determined, and IC50 was calculated based on the values.
(In general: In ADP-Glo the light output rises with the ADP produced.)

The target in another assay is T2, ITK (Homo sapiens, UniProt Q08881).
T2 construct: purchased Promega
T2 sequence (Q08881 1-620): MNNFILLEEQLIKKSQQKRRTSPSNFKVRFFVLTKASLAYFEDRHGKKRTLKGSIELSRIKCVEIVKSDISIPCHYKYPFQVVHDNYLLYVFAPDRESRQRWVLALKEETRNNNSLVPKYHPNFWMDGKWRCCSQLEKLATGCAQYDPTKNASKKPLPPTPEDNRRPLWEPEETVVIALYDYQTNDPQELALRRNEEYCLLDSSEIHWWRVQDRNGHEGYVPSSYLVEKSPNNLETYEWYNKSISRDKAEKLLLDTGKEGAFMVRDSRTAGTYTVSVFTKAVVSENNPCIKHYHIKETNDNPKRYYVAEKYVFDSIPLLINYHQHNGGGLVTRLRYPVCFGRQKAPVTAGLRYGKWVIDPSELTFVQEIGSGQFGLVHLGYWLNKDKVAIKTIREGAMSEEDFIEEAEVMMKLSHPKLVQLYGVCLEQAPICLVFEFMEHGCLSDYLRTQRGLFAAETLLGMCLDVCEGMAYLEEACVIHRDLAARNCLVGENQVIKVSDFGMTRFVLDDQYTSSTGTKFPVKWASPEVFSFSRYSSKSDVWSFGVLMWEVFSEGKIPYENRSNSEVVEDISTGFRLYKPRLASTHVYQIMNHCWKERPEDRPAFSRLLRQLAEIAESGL
Put plainly: ITK inhibitory activity, ADP-Glo + ITK Kinase enzyme system kit (Promega). Type of assay: biochemical. Particulars: ITK enzyme 0.4 ng/uL, ATP 25 uM, 15 min preincubation, luminescence, duplicate. The procedure: as §1
as §2, with “ITK” for “BTK”, “‘ADP-Glo™+ITK” for “‘ADP-Glo™+BTK”, “25” for “10”

T1 sequence (Q06187 whole entry): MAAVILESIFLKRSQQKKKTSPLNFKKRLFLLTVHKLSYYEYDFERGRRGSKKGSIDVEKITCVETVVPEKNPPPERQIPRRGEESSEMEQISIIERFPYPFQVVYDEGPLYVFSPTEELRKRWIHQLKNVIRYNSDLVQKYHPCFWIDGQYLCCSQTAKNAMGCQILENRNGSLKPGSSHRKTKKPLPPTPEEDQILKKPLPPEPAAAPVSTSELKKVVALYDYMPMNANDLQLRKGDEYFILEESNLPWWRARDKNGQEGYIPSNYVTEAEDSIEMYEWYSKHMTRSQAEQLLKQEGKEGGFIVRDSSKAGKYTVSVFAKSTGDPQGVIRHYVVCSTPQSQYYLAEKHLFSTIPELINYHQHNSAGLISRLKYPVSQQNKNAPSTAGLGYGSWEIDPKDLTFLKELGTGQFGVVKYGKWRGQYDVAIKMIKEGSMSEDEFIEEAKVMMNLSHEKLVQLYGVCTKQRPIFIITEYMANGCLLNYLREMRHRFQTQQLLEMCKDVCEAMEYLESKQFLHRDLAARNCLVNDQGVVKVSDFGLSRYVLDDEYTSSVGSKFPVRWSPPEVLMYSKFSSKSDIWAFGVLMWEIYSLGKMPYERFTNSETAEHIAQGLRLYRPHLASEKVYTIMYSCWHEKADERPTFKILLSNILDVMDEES

As to `C=CC(=O)N1CCC[C@@H](n2nc(-c3ccc(C(=O)Nc4ccccc4)cc3)c3c(N)ncc(C)c32)C1` [Example 44, (R)-4-(1-(1-acryloylpiperidin-3-yl)-4-amino-7-methyl-1H-pyrazolo[4,3-c]pyridin-3-yl)-N-phenyl benzamide], the IC50 (commonly the midpoint of a concentration-inhibition curve) on BTK was more than 1.56 nM; at ITK, 105 nM.

Regarding `C=CC(=O)N1CC[C@H](n2nc(-c3ccc(C(=O)Nc4ccccc4)cc3)c3c(N)nccc32)C1` [Example 47, (S)-4-(1-(1-acryloylpyrrolidin-3-yl)-4-amino-1H-pyrazolo[4,3-c]pyridin-3-yl)-N-phenylbenzamide], the IC50 was 180 nM at BTK and more than 1000 nM on ITK.

For the compound `C=CC(=O)N1CCC[C@@H](n2nc(Nc3cnn(C4CC4)c3)c3c(N)nccc32)C1` [Example 61, (R)-1-(3-(4-amino-3-(1-cyclopropyl-1H-pyrazol-4-ylamino)-1H-pyrazolo[4,3-c]pyridin-1-yl)piperidin-1-yl)prop-2-en-1-one], the results for the IC50 on BTK and on ITK were 187 nM and more than 1000 nM, respectively.

As for `C=CC(=O)N1CC(n2nc(-c3ccc(C(=O)Nc4ccccn4)cc3Cl)c3c(N)nccc32)C1` [Example 63, 4-(1-(1-acryloylazetidin-3-yl)-4-amino-1H-pyrazolo[4,3-c]pyridin-3-yl)-3-chloro-N-(pyridin-2-yl)benzamide], the IC50 came out at 3.1 nM on BTK and 30.1 nM at ITK.

As to `C=CC(=O)N1CCC[C@@H](n2nc(-c3ccc(C(=O)Nc4ccccn4)cc3Cl)c3c(N)ncc(I)c32)C1` [Example 65, (R)-4-(1-(1-acryloylpiperidin-3-yl)-4-amino-7-iodo-1H-pyrazolo[4,3-c]pyridin-3-yl)-3-chloro-N-(pyridin-2-yl)benzamide], the concentration for half-maximal inhibition (IC50) at BTK came out at 0.4 nM; at ITK, 1.3 nM.

For `C=C(C)C(=O)N1CCC[C@@H](n2nc(-c3ccc(C(=O)Nc4ccccn4)cc3F)c3c(N)ncc(Cl)c32)C1` [Example 55, (R)-4-(4-amino-7-chloro-1-(1-methacryloylpiperidin-3-yl)-1H-pyrazolo[4,3-c]pyridin-3-yl)-3-fluoro-N-(pyridin-2-yl)benzamide], the IC50 amounted to 6.4 nM at BTK and 124 nM at ITK.

Consider `C=CC(=O)N1CC(n2nc(-c3ccc(C(=O)Nc4ccccn4)cc3F)c3c(N)nccc32)C1` [Example 52], for which the results for the IC50 on BTK and at ITK were 1.6 nM and 51.6 nM, respectively.

Regarding `C=CC(=O)N1CCCC(n2nc(-c3ccc(Oc4ccccc4)cc3)c3c(N)ncc(-c4ccccc4)c32)C1` (stereo not drawn) [Example 11, 1-(3-(4-amino-3-(4-phenoxyphenyl)-7-phenyl-1H-pyrazolo[4,3-c]pyridin-1-yl)piperidin-1-yl)prop-2-en-1-one], the 50% inhibitory concentration (IC50) on BTK amounted to 11.4 nM; at ITK, 224 nM.

Regarding `C=CC(=O)N1CCC(n2nc(-c3ccc(Oc4ccccc4)cc3)c3c(N)ncc(-c4cnn(C)c4)c32)CC1` [Example 13, 1-(4-(4-amino-7-(1-methyl-1H-pyrazol-4-yl)-3-(4-phenoxyphenyl)-1H-pyrazolo[4,3-c]pyridin-1-yl)piperidin-1-yl)prop-2-en-1-one], the IC50 is 5.1 nM at BTK and more than 1000 nM at ITK.

Consider `C=CC(=O)N1CCC[C@@H](n2nc(-c3ccc(C(=O)Nc4ccccn4)cc3Cl)c3c(N)ncc(-c4cn[nH]c4)c32)C1` [Example 70, (R)-4-(1-(1-acryloylpiperidin-3-yl)-4-amino-7-(1H-pyrazol-4-yl)-1H-pyrazolo[4,3-c]pyridin-3-yl)-3-chloro-N-(pyridin-2-yl)benzamide], for which the IC50 on BTK was found to be 2 nM; at ITK, 5.2 nM.

`C=CC(=O)N1CCCC(n2nc(-c3ccc(Oc4ccccc4)cc3)c3c(N)ncc(I)c32)C1` (stereo not drawn) [Example 5, 1-(3-(4-amino-7-iodo-3-(4-phenoxyphenyl)-1H-pyrazolo[4,3-c]pyridin-1-yl)piperidin-1-yl)prop-2-en-1-one]: the IC50 at BTK came to 6.7 nM; on ITK it was 19.5 nM.

With `C=CC(=O)N1CCC[C@@H](n2nc(-c3ccc(C(=O)Nc4ccccn4)cc3Cl)c3c(N)ncc(C#N)c32)C1` [Example 66, (R)-4-(1-(1-acryloylpiperidin-3-yl)-4-amino-7-cyano-1H-pyrazolo[4,3-c]pyridin-3-yl)-3-chloro-N-(pyridin-2-yl)benzamide], the IC50 at BTK and at ITK was 1.3 nM throughout.

For `C#CC(=O)N1CCC(n2nc(-c3ccc(Oc4ccccc4)cc3)c3c(N)nccc32)CC1` [Example 4, 1-(4-(4-amino-3-(4-phenoxyphenyl)-1H-pyrazolo[4,3-c]pyridin-1-yl)piperidin-1-yl)prop-2-yn-1-one], the values for the 50% inhibitory concentration (IC50) on BTK and on ITK were 5.5 nM and 277 nM, respectively.

On to `C=CC(=O)N1CC2CC1C(n1nc(-c3ccc(Oc4ccccc4)cc3)c3c(N)ncc(-c4cnn(C)c4)c31)C2` (stereo not drawn) [Example 8, 1-(6-(4-amino-7-(1-methyl-1H-pyrazol-4-yl)-3-(4-phenoxyphenyl)-1H-pyrazolo[4,3-c]pyridin-1-yl)-2-azabicyclo[2.2.1]heptan-2-yl)prop-2-en-1-one], for which the IC50 on BTK is 7.3 nM; at ITK, more than 500 nM.

`C=CC(=O)N1CCC[C@@H](n2nc(-c3ccc(C(=O)Nc4ccccc4)cc3)c3c(N)ncc(Cl)c32)C1` [Example 23, (R)-4-(1-(1-acryloylpiperidin-3-yl)-4-amino-7-chloro-1H-pyrazolo[4,3-c]pyridin-3-yl)-N-phenyl benzamide]: the IC50 was found to be 1.2 nM on BTK and 48 nM on ITK.

For the compound `C=CC(=O)N1CCC[C@@H](n2nc(-c3ccc(C(=O)Nc4ccccn4)cc3)c3c(N)ncc(Cl)c32)C1` [Example 19, (R)-4-(1-(1-acryloylpiperidin-3-yl)-4-amino-7-chloro-1H-pyrazolo[4,3-c]pyridin-3-yl)-N-(pyridin-2-yl)benzamide], the IC50 at BTK was 1.7 nM; at ITK, 7.8 nM.

Take `C=CC(=O)N1CCC[C@@H](n2nc(-c3ccc(C(=O)Nc4ccccn4)cc3)c3c(N)ncc(Nc4ccccc4)c32)C1` [Example 43, (R)-4-(1-(1-acryloylpiperidin-3-yl)-4-amino-7-(phenylamino)-1H-pyrazolo[4,3-c]pyridin-3-yl)-N-(pyridin-2-yl)benzamide]: the half-inhibitory concentration (IC50) was 2.5 nM at BTK and 146 nM on ITK.

In the case of `C=CC(=O)N1CCCC(n2nc(-c3ccc(Oc4ccccc4)cc3)c3c(N)ncc(/C=C/c4ccc(F)cc4)c32)C1` (stereo not drawn) [Example 14, (E)-1-(3-(4-amino-7-(4-fluorostyryl)-3-(4-phenoxyphenyl)-1H-pyrazolo[4,3-c]pyridin-1-yl)piperidin-1-yl)prop-2-en-1-one], the results for the IC50 on BTK and at ITK were 4.1 nM and 38.4 nM, respectively.

With `C=CC(=O)N1CCC[C@@H](n2nc(-c3ccc(C(=O)Nc4ccccn4)cc3F)c3c(N)nccc32)C1` [Example 40, (R)-4-(1-(1-acryloylpiperidin-3-yl)-4-amino-1H-pyrazolo[4,3-c]pyridin-3-yl)-3-fluoro-N-(pyridin-2-yl)benzamide], the IC50 on BTK is 2.7 nM; on ITK, 6.4 nM.

Turning to `C=CC(=O)N1CCC[C@@H](n2nc(C(=O)Nc3nc4cc(Cl)ccc4o3)c3c(N)ncc(Cl)c32)C1` [Example 74, (R)-1-(1-acryloylpiperidin-3-yl)-4-amino-7-chloro-N-(5-chlorobenzo[d]oxazol-2-yl)-1H-pyrazolo[4,3-c]pyridine-3-carboxamide], the IC50 at BTK is 3.3 nM; at ITK it was 6.4 nM.

With `C=CC(=O)N1CCC[C@H](n2nc(-c3ccc(C(=O)Nc4ccccn4)cc3)c3c(N)nccc32)C1` [Example 39, (S)-4-(1-(1-acryloylpiperidin-3-yl)-4-amino-1H-pyrazolo[4,3-c]pyridin-3-yl)-N-(pyridin-2-yl)benzamide], the IC50 at BTK is 3.5 nM; at ITK, more than 1000 nM.
